System: participants with migraine (qualifying prodrome events)
Experiment: Phase 3 crossover study: absence of headache after treatment during the prodrome
Type: in vivo, human
Experimental: A phase 3, multicenter, randomized, double-blind, placebo-controlled, crossover study was carried out to evaluate the efficacy, safety, and tolerability of oral ubrogepant in the acute treatment of migraine when administered during the prodrome. The study evaluated whether treatment during the initial phase of a migraine attack (i.e., the prodrome or premonitory phase) prior to the onset of headache, can attenuate the severity of the headache phase and reduce disability.
Eligible participants were able to treat two qualifying prodrome events, defined as a migraine attack with prodromal symptoms in which the participant was confident a headache would follow within 1-6 hours.
The primary endpoint was absence of moderate or severe intensity headache within 24 hours post-dose. Secondary endpoints were absence of moderate/severe intensity headache within 48 hours, ability to function normally over 24 hours, and absence of headache of any intensity within 24 hours post-dose.
The trial enrolled adults with 2-8 migraine attacks per month who stated that they could identify migraine attacks with prodromal symptoms reliably followed by headache. Using an e-diary, participants reported qualifying events, defined as a migraine attack with prodromal symptoms in which the participant was confident a headache would follow within 1-6 hours.
Eligible participants were randomized (1:1) to treatment sequences A or B in this crossover study. Participants randomized to Treatment Sequence A received placebo to treat their first qualifying prodrome event and ubrogepant 100 mg to treat their second qualifying prodrome event. For those randomized to Treatment Sequence B, they received the reverse: ubrogepant 100 mg to treat their first qualifying prodrome event and placebo to treat their second qualifying prodrome event.
The primary efficacy endpoint was the absence of a headache of moderate/severe intensity within 24 hours after taking double-blind study intervention during the prodrome. The secondary efficacy endpoints were the absence of a headache of moderate or severe intensity within 48 hours, ability to function normally over 24 hours, and absence of a headache of any intensity within 24 hours after taking double blind study interventions during the prodrome.
The overall study design is illustrated in FIG. 1. […] After meeting eligibility criteria, randomized participants were to treat two qualifying prodrome events with study intervention during the double-blind treatment period (between Visit 2 and Visit 4) (up to 60 days), separated by a clinic visit (visit 3) to ensure a minimum 7-day washout period. A post-treatment visit (visit 4) followed four days after the last treatment was taken.
To be eligible for study participation, participants must be 18 to 75 years of age (inclusive) at Visit 1, have at least a 1-year history of migraine with or without aura consistent with diagnosis according to the ICHD-3 (2018), and experience 2 to 8 migraine attacks with moderate to severe headache per month by history in each of the 3 months prior to screening. At the screening visit, participants were asked whether they could identify prodromal symptoms followed by migraine headache within 1 to 6 hours at least 75% of the time. […] After the screening period, to be eligible for randomization, the participant needed to record 3 to 16 qualifying prodrome events with at least 75% of these events followed by a headache, of any intensity, within 1 to 6 hours.
Participants were excluded if they had difficulty distinguishing migraine from tension-type or other headache types, or if they had chronic migraine, a trigeminal autonomic cephalalgia, or a painful cranial neuropathy. Participants who overused medication for migraine or had previous exposure to an injectable anti-CGRP monoclonal antibody within the previous 3 months were also excluded.
Participant flow is illustrated in FIG. 2. […]

[1] = 100 mg in prodrome, within 1 hour, mITT, observed cases
[2] = 100 mg in prodrome, within 2 hours, mITT, observed cases
[3] = 100 mg in prodrome, within 3 hours, mITT, observed cases
[4] = 100 mg in prodrome, within 4 hours, mITT, observed cases
[5] = 100 mg in prodrome, within 6 hours, mITT, observed cases
[6] = 100 mg in prodrome, within 8 hours, mITT, observed cases
[7] = 100 mg in prodrome, within 24 hours, mITT, observed cases
[8] = 100 mg in prodrome, within 24 hours, mITT, observed cases (primary analysis)
[9] = 100 mg in prodrome, within 24 hours, sensitivity analysis: Period 1 data only
[10] = 100 mg in prodrome, within 24 hours, sensitivity analysis: non-responder imputation
[11] = 100 mg in prodrome, within 24 hours, sensitivity analysis: testing carryover effect
[12] = 100 mg in prodrome, within 48 hours, mITT, observed cases

C[C@@H]1[C@H](c2ccccc2)C[C@H](NC(=O)c2cnc3c(c2)C[C@@]2(C3)C(=O)Nc3ncccc32)C(=O)N1CC(F)(F)F [Ubrogepant, (3′S)—N-((3S,5S,6R)-6-methyl-2-oxo-5-phenyl-1-(2,2,2-trifluoroethyl)piperidin-3-yl)-2′-oxo-1′,2′,5,7-tetrahydrospiro[cyclopenta[b]pyridine-6,3′-pyrrolo[2,3-b]pyridine]-3-carboxamide]
Absence of a headache of any intensity, Nonresponder (%) [1]: (42.9) % | Absence of a headache of any intensity, Odds Ratio vs. Placebo [1]: 1.19 | Absence of a headache of any intensity, Responder (%) [1]: (57.1) % | Absence of a headache of moderate/severe intensity, Nonresponder (%) [1]: (22.9) % | Absence of a headache of moderate/severe intensity, Odds Ratio vs. Placebo [1]: 1.30 | Absence of a headache of moderate/severe intensity, Responder (%) [1]: (77.1) % | Absence of a headache of severe intensity, Nonresponder (%) [1]: (4.0) % | Absence of a headache of severe intensity, Odds Ratio vs. Placebo [1]: 1.21 | Absence of a headache of severe intensity, Responder (%) [1]: (96.0) % | Absence of a headache of any intensity, Nonresponder (%) [2]: (55.7) % | Absence of a headache of any intensity, Odds Ratio vs. Placebo [2]: 1.34 | Absence of a headache of any intensity, Responder (%) [2]: (44.3) % | Absence of a headache of moderate/severe intensity, Nonresponder (%) [2]: (35.4) % | Absence of a headache of moderate/severe intensity, Odds Ratio vs. Placebo [2]: 1.31 | Absence of a headache of moderate/severe intensity, Responder (%) [2]: (64.6) % | Absence of a headache of severe intensity, Nonresponder (%) [2]: (7.4) % | Absence of a headache of severe intensity, Odds Ratio vs. Placebo [2]: 1.33 | Absence of a headache of severe intensity, Responder (%) [2]: (92.6) % | Absence of a headache of any intensity, Nonresponder (%) [3]: (62.5) % | Absence of a headache of any intensity, Odds Ratio vs. Placebo [3]: 1.60 | Absence of a headache of any intensity, Responder (%) [3]: (37.5) % | Absence of a headache of moderate/severe intensity, Nonresponder (%) [3]: (39.9) % | Absence of a headache of moderate/severe intensity, Odds Ratio vs. Placebo [3]: 1.71 | Absence of a headache of moderate/severe intensity, Responder (%) [3]: (60.1) % | Absence of a headache of severe intensity, Nonresponder (%) [3]: (9.4) % | Absence of a headache of severe intensity, Odds Ratio vs. Placebo [3]: 1.41 | Absence of a headache of severe intensity, Responder (%) [3]: (90.6) % | Absence of a headache of any intensity, Nonresponder (%) [4]: (67.3) % | Absence of a headache of any intensity, Odds Ratio (95% CI) vs. Placebo [4]: 1.76 (1.35, 2.30) | Absence of a headache of any intensity, Responder (%) [4]: (32.7) % | Absence of a headache of moderate/severe intensity, Nonresponder (%) [4]: (41.5) % | Absence of a headache of moderate/severe intensity, Odds Ratio vs. Placebo [4]: 1.91 | Absence of a headache of moderate/severe intensity, Responder (%) [4]: (58.5) % | Absence of a headache of severe intensity, Nonresponder (%) [4]: (10.5) % | Absence of a headache of severe intensity, Odds Ratio vs. Placebo [4]: 1.70 | Absence of a headache of severe intensity, Responder (%) [4]: (89.5) % | Absence of a headache of any intensity, Nonresponder (%) [5]: (71.0) % | Absence of a headache of any intensity, Odds Ratio vs. Placebo [5]: 1.79 | Absence of a headache of any intensity, Responder (%) [5]: (29.0) % | Absence of a headache of moderate/severe intensity, Nonresponder (%) [5]: (46.6) % | Absence of a headache of moderate/severe intensity, Odds Ratio vs. Placebo [5]: 1.86 | Absence of a headache of moderate/severe intensity, Responder (%) [5]: (53.4) % | Absence of a headache of severe intensity, Nonresponder (%) [5]: (12.5) % | Absence of a headache of severe intensity, Odds Ratio vs. Placebo [5]: 1.77 | Absence of a headache of severe intensity, Responder (%) [5]: (87.5) % | Absence of a headache of any intensity, Nonresponder (%) [6]: (72.5) % | Absence of a headache of any intensity, Odds Ratio vs. Placebo [6]: 1.85 | Absence of a headache of any intensity, Responder (%) [6]: (27.5) % | Absence of a headache of moderate/severe intensity, Nonresponder (%) [6]: (48.2) % | Absence of a headache of moderate/severe intensity, Odds Ratio vs. Placebo [6]: 2.01 | Absence of a headache of moderate/severe intensity, Responder (%) [6]: (51.8) % | Absence of a headache of severe intensity, Nonresponder (%) [6]: (13.1) % | Absence of a headache of severe intensity, Odds Ratio vs. Placebo [6]: 1.89 | Absence of a headache of severe intensity, Responder (%) [6]: (86.9) % | Absence of a headache of any intensity, Nonresponder (%) [7]: (76.3) % | Absence of a headache of any intensity, Odds Ratio vs. Placebo [7]: 1.93 | Absence of a headache of any intensity, Responder (%) [7]: (23.7) % | Absence of a headache of severe intensity, Nonresponder (%) [7]: (14.5) % | Absence of a headache of severe intensity, Odds Ratio vs. Placebo [7]: 1.83 | Absence of a headache of severe intensity, Responder (%) [7]: (85.5) % | Absence of a headache of moderate/severe intensity, Nonresponder (%) [8]: (54.5) % | Absence of a headache of moderate/severe intensity, Odds Ratio vs. Placebo [8]: 2.09 | Absence of a headache of moderate/severe intensity, Responder (%) [8]: (45.5) % | Absence of a headache of moderate/severe intensity, Responder (%) (100 mg in prodrome, within 24 hours, mITT, observed cases (primary analysis), listed as ubrogepant): 45.5% | Absence of a headache of any intensity, Responder (%) (100 mg in prodrome, within 24 hours, mITT, observed cases, listed as ubrogepant): 23.7% | Absence of a headache of moderate/severe intensity, Nonresponder (%) [9]: (52.6) % | Absence of a headache of moderate/severe intensity, Odds Ratio vs. Placebo [9]: 2.11 | Absence of a headache of moderate/severe intensity, Responder (%) [9]: (47.4) % | Absence of a headache of moderate/severe intensity, Nonresponder (%) [10]: (57.6) % | Absence of a headache of moderate/severe intensity, Odds Ratio vs. Placebo [10]: 2.01 | Absence of a headache of moderate/severe intensity, Responder (%) [10]: (42.4) % | Absence of a headache of moderate/severe intensity, Nonresponder (%) [11]: (54.5) % | Absence of a headache of moderate/severe intensity, Odds Ratio vs. Placebo [11]: 2.09 | Absence of a headache of moderate/severe intensity, Responder (%) [11]: (45.5) % | Absence of a headache of any intensity, Nonresponder (%) [12]: (81.4) % | Absence of a headache of any intensity, Odds Ratio vs. Placebo [12]: 1.90 | Absence of a headache of any intensity, Responder (%) [12]: (18.6) % | Absence of a headache of moderate/severe intensity, Nonresponder (%) [12]: (59.3) % | Absence of a headache of moderate/severe intensity, Odds Ratio vs. Placebo [12]: 2.13 | Absence of a headache of moderate/severe intensity, Responder (%) [12]: (40.7) % | Absence of a headache of severe intensity, Nonresponder (%) [12]: (17.4) % | Absence of a headache of severe intensity, Odds Ratio vs. Placebo [12]: 1.71 | Absence of a headache of severe intensity, Responder (%) [12]: (82.6) % | Absence of a headache of moderate/severe intensity, Responder (%) (100 mg in prodrome, within 48 hours, mITT, observed cases, listed as ubrogepant): 40.7% | Reducing the development of moderate/severe headache within 24 and 48 hours and of headache of any intensity within 24 hours (administered during the prodrome): superior to placebo

From US20260130901A1, “CGRP RECEPTOR ANTAGONIST FOR THE TREATMENT OF MIGRAINE” (ALLERGAN PHARMACEUTICALS INTERNATIONAL LIMITED, priority 2022, published 2026)
